Like-named read-outs stand apart in the source and are kept apart here.
How the values were obtained:
[1] = target: human M4 receptor (Homo sapiens (Human), UniProt P08173); assay: Radioligand (tritiated N-methylscopolamine) binding assay, M4; conditions: Ki against the M4 receptor; membranes from CHO cells expressing human M4; tritiated N-methylscopolamine 1.5 nM; read-out: Ki
Procedure, shortened: (§1)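 CHO membranes; 1.5 nM radioligand; 12-point compound dose-response, 10 μM to […]; HEPES/NaCl/MgCl2/EDTA buffer pH 7.4; 90 min, 37 °C. PEI-treated glass fiber filtration, radioactivity counting. Ki from inhibition of binding.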

[2] = target: human M2 receptor (Homo sapiens (Human), UniProt P08172); assay: Radioligand (tritiated N-methylscopolamine) binding assay, M2
human M2 receptor, sequence (P08172 whole entry): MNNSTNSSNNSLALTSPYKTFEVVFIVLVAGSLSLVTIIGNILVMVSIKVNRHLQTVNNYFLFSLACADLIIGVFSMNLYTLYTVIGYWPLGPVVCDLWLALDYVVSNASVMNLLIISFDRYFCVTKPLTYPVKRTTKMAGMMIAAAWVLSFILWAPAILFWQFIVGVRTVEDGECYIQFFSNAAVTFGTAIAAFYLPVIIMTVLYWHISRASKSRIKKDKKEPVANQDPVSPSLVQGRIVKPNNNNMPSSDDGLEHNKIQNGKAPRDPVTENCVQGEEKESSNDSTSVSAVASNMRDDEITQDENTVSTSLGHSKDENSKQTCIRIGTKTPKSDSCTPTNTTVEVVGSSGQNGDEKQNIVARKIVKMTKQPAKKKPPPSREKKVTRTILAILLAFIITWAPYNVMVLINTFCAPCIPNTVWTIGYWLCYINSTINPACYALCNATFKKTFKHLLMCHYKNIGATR
Procedure, shortened: as §1

[3] = target: human M1 receptor (Homo sapiens (Human), UniProt P11229); assay: Radioligand (tritiated N-methylscopolamine) binding assay, M1
human M1 receptor, sequence (P11229 whole entry): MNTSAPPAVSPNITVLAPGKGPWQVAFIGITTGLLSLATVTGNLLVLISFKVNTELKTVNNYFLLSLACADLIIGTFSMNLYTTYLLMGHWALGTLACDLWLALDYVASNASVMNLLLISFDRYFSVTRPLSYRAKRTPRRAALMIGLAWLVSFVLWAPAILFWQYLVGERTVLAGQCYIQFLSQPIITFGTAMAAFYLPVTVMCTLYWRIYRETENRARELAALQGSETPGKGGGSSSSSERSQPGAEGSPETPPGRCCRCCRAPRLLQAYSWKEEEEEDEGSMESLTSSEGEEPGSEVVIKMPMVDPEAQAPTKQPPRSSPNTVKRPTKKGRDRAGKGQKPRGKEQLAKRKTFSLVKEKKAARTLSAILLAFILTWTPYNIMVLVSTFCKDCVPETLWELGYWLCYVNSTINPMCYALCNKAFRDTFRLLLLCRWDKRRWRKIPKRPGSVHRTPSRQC
Procedure, shortened: as §1

[4] = target: human M5 receptor (Homo sapiens (Human), UniProt P08912); assay: Radioligand (tritiated N-methylscopolamine) binding assay, M5
human M5 receptor, sequence (P08912 whole entry): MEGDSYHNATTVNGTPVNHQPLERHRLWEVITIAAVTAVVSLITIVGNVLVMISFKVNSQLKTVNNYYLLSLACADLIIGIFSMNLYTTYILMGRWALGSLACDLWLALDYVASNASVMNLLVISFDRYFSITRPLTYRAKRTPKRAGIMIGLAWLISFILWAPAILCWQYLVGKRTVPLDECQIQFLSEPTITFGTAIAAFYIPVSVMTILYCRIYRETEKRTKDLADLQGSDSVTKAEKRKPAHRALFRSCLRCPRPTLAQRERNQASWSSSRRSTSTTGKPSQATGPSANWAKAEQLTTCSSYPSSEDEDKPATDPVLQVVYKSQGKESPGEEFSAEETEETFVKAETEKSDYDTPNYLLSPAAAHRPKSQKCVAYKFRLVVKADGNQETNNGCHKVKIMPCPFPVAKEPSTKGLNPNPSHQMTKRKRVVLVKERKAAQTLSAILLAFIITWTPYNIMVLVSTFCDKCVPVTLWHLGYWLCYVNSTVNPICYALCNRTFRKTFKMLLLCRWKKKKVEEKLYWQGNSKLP
Procedure, shortened: as §1

[5] = target: human M3 receptor (Homo sapiens (Human), UniProt P20309); assay: Radioligand (tritiated N-methylscopolamine) binding assay, M3; conditions: CHO cell membranes expressing human M3; 1.5 nM tritiated N-methylscopolamine; 90 min, 37° C.; read-out: Ki against M3 receptor (Table 21, M3)
human M3 receptor, sequence (P20309 whole entry): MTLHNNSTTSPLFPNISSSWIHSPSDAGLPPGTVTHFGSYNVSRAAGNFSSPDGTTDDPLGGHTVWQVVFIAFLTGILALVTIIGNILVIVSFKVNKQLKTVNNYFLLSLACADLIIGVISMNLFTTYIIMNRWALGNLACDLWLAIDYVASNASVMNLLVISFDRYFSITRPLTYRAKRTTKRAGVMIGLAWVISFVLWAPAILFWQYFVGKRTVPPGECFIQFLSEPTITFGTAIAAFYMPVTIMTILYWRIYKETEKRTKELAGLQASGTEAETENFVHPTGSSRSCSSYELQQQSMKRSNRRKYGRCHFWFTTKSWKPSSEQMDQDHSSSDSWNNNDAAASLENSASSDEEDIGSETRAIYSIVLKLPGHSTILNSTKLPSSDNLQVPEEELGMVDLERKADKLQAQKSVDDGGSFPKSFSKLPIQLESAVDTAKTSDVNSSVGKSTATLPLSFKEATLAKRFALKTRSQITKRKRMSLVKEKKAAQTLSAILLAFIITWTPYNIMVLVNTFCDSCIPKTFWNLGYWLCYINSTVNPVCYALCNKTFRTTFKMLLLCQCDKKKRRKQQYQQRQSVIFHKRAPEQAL
Procedure, shortened: as §1

[6] = CHO cell membranes expressing human M2, 1.5 nM tritiated N-methylscopolamine, 90 min, 37° C., read-out: Ki against M2 receptor (Table 21, M2)
[7] = CHO cell membranes expressing human M1, 1.5 nM tritiated N-methylscopolamine, 90 min, 37° C., read-out: Ki against M1 receptor (Table 21, M1)
[8] = CHO cell membranes expressing human M5, 1.5 nM tritiated N-methylscopolamine, 90 min, 37° C., read-out: Ki against M5 receptor (Table 21, M5)

human M4 receptor, sequence (P08173 whole entry): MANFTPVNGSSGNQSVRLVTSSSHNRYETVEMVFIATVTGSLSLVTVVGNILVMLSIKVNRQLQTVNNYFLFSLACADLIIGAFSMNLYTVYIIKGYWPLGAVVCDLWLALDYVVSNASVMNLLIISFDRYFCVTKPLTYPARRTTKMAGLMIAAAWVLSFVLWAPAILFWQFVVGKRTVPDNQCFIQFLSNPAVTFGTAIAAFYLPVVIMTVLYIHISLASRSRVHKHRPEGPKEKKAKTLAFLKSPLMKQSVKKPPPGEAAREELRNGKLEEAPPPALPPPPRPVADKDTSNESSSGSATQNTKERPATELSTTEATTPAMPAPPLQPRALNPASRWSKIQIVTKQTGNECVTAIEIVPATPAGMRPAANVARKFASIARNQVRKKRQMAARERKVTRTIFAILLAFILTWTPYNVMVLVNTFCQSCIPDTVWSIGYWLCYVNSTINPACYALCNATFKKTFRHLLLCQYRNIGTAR

| SMILES | Ki [1] [µM] | Ki [2, 6] [µM] | Ki [3, 7] [µM] | Ki [4, 8] [µM] | Ki [5] [µM] | Ki [2] [µM] | Ki [3] [µM] | Ki [4] [µM] |
| --- | --- | --- | --- | --- | --- | --- | --- | --- |
| C[C@@H]1CN(c2cnc(C(F)(F)F)cn2)C[C@H](C)N1C(=O)NCCC1CCN(Cc2ccccc2)CC1 [22-23] | < 0.01 | < 0.01 | 0.1 to 1 | 0.1 to 1 | 0.1 to 1 | – | – | – |
| COc1ccc(N2C[C@@H](C)N(C(=O)NCCC3CCN(Cc4ccccc4)CC3)[C@@H](C)C2)cc1C#N [22-24] | < 0.01 | 0.01 to 0.1 | 0.1 to 1 | > 1 | > 1 | – | – | – |
| O=C(NCCC1CCN(Cc2ccccc2)CC1)N1CCN(c2cnc(C(F)(F)F)cn2)CC1 [22-25, N-[2-(1-benzylpiperidin-4-yl)ethyl]-4-[5-(trifluoromethyl)pyrazin-2-yl]piperazine-1-carboxamide] | < 0.01 | 0.01 to 0.1 | > 1 | > 1 | > 1 | – | – | – |
| C[C@@H]1CN(c2cc(F)nc(F)c2)CCN1C(=O)NCCC1CCN(Cc2ccccc2)CC1 [22-30] | < 0.01 | 0.01 to 0.1 | 0.1 to 1 | > 1 | > 1 | – | – | – |
| C[C@@H]1CN(c2ccc(C#N)c(C(F)(F)F)c2)CCN1C(=O)NCCC1CCN(Cc2ccccc2)CC1 [22-31] | < 0.01 | – | – | – | > 1 | 0.01 to 0.1 | 0.01 to 0.1 | 0.1 to 1 |
| COc1cc(N2CCN(C(=O)NCCC3CCN(Cc4ccccc4)CC3)[C@H](C)C2)cc(F)c1C#N [22-32] | < 0.01 | 0.1 to 1 | 0.1 to 1 | 0.1 to 1 | > 1 | – | – | – |
| C[C@@H]1CN(c2ncc(C(F)(F)F)c(N)n2)C[C@@H](C)N1C(=O)NCCC1CCN(Cc2ccccc2)CC1 [26-1, (2R,6R)-4-[4-amino-5-(trifluoromethyl)pyrimidin-2-yl]-N-[2-(1-benzylpiperidin-4-yl)ethyl]-2,6-dimethylpiperazine-1-carboxamide] | < 0.01 | 0.01 to 0.1 | 0.1 to 1 | > 1 | > 1 | – | – | – |
| C[C@@H]1CN(c2ncc(C#N)cn2)C[C@@H](C)N1C(=O)NCCC1CCN(Cc2ccccc2)CC1 [26-2] | < 0.01 | 0.1 to 1 | > 1 | > 1 | > 1 | – | – | – |
| C[C@@H]1CN(c2cnc(C(F)(F)F)cn2)C[C@@H](C)N1C(=O)NCCC1CCN(Cc2ccccc2)CC1 [26-4, (2R,6R)-N-[2-(1-benzylpiperidin-4-yl)ethyl]-2,6-dimethyl-4-[5-(trifluoromethyl)pyrazin-2-yl]piperazine-1-carboxamide] | < 0.01 | 0.1 to 1 | > 1 | > 1 | > 1 | – | – | – |
| C[C@@H]1CN(c2cnc(C(F)(F)F)nc2)C[C@@H](C)N1C(=O)NCCC1CCN(Cc2ccccc2)CC1 [26-6] | < 0.01 | 0.01 to 0.1 | 0.01 to 0.1 | 0.1 to 1 | 0.1 to 1 | – | – | – |

Source: US11033539B2, “Compounds of formulas (VII), (VIII), (IX), (XI), (XII), (XIII), and (XIV) as muscarinic receptor 4(M4) antagonists for treating neurological diseases” (Neurocrine Biosciences, Inc., priority 2015, dated 2021)
